From the supplement of paper PMC3937590

How the values were obtained:
Experiment in all cases: -log10 GI50 (growth inhibition 50%) (-log10(M)); higher = more potent growth inhibition
[1] = system: SKBR3
How it was run: (§1)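 Breast cancer cell lines were treated with each compound for 72 hours at nine doses in 1:5 serial dilution, in triplicate, and luminescence was read against a time-zero plate. A Gompertz curve was fitted to the dose-response data by nonlinear least squares to obtain GI50, the molar concentration giving the set level of growth inhibition, which is reported as its negative logarithm. The logarithm is base 10, and values equal to the top dose carry a < qualifier.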

[2] = system: SUM52PE
How it was run: as §1

[3] = system: SUM149PT
How it was run: as §1

[4] = system: MDAMB157
How it was run: as §1

[5] = system: MDAMB134VI
How it was run: as §1

[6] = system: BT483
How it was run: as §1

[7] = system: MDAMB175VII
How it was run: as §1

[8] = system: MDAMB436
How it was run: as §1

[9] = system: T47D
How it was run: as §1

[10] = system: MCF12A
How it was run: as §1

[11] = system: HBL100
How it was run: as §1

[12] = system: BT474
How it was run: as §1

[13] = system: MCF7
How it was run: as §1

[14] = system: 184A1
How it was run: as §1

[15] = system: S1
How it was run: as §1

[16] = system: HCC1806
How it was run: as §1

[17] = system: SUM185PE
How it was run: as §1

[18] = system: MCF10F
How it was run: as §1

[19] = system: SUM1315MO2
How it was run: as §1

[20] = system: MDAMB453
How it was run: as §1

[21] = system: ZR751
How it was run: as §1

[22] = system: HCC202
How it was run: as §1

[23] = system: HCC38
How it was run: as §1

[24] = system: HCC2185
How it was run: as §1

[25] = system: HCC1937
How it was run: as §1

[26] = system: HCC1395
How it was run: as §1

[27] = system: SUM159PT
How it was run: as §1

[28] = system: UACC893
How it was run: as §1

[29] = system: HCC1419
How it was run: as §1

[30] = system: HCC70
How it was run: as §1

[31] = system: HCC1143
How it was run: as §1

[32] = system: HS578T
How it was run: as §1

[33] = system: SUM44PE
How it was run: as §1

[34] = system: 600MPE
How it was run: as §1

[35] = system: LY2
How it was run: as §1

[36] = system: HCC1569
How it was run: as §1

[37] = system: CAMA1
How it was run: as §1

[38] = system: SUM229PE
How it was run: as §1

[39] = system: MCF10A
How it was run: as §1

[40] = system: MDAMB231
How it was run: as §1

[41] = system: HCC3153
How it was run: as §1

[42] = system: AU565
How it was run: as §1

[43] = system: HCC1428
How it was run: as §1

[44] = system: HCC1954
How it was run: as §1

[45] = system: HCC1187
How it was run: as §1

[46] = system: BT549
How it was run: as §1

[47] = system: MDAMB415
How it was run: as §1

[48] = system: MDAMB361
How it was run: as §1

CC/C(=C(\c1ccccc1)c1ccc(OCCN(C)C)cc1)c1ccccc1 [Tamoxifen]
-log10 GI50 [1]: 4.37 | -log10 GI50 [2]: 4.28 | -log10 GI50 [3]: 4.11 | -log10 GI50 [4]: 4.09 | -log10 GI50 [5]: 6.78 | -log10 GI50 [6]: 5.47 | -log10 GI50 [7]: < 3.78 | -log10 GI50 [8]: 4.51 | -log10 GI50 [9]: < 3.78 | -log10 GI50 [10]: 4.89 | -log10 GI50 [11]: 4.32 | -log10 GI50 [12]: 5.62 | -log10 GI50 [13]: < 3.78 | -log10 GI50 [14]: < 3.78 | -log10 GI50 [15]: 5.84 | -log10 GI50 [16]: 4.31 | -log10 GI50 [17]: 5.05 | -log10 GI50 [18]: < 3.78 | -log10 GI50 [19]: 4.46 | -log10 GI50 [20]: 4.47 | -log10 GI50 [21]: < 3.78 | -log10 GI50 [22]: 4.55 | -log10 GI50 [23]: 4.28 | -log10 GI50 [24]: 4.21 | -log10 GI50 [25]: < 3.78 | -log10 GI50 [26]: 4.37 | -log10 GI50 [27]: 3.93 | -log10 GI50 [28]: 4.72 | -log10 GI50 [29]: < 3.78 | -log10 GI50 [30]: < 3.78 | -log10 GI50 [31]: 4.28 | -log10 GI50 [32]: < 3.78 | -log10 GI50 [33]: 7.03 | -log10 GI50 [34]: 4.35 | -log10 GI50 [35]: 4.25 | -log10 GI50 [36]: < 3.78 | -log10 GI50 [37]: 4.46 | -log10 GI50 [38]: 5.62 | -log10 GI50 [39]: 4.16 | -log10 GI50 [40]: < 3.78 | -log10 GI50 [41]: < 3.78 | -log10 GI50 [42]: 4.05 | -log10 GI50 [43]: 5.49 | -log10 GI50 [44]: 4.54 | -log10 GI50 [45]: 4.36 | -log10 GI50 [46]: < 3.78 | -log10 GI50 [47]: 4.47 | -log10 GI50 [48]: < 3.78
